Patent publication US20070238700A1, “N-PHENYL-1,1,1-TRIFLUOROMETHANESULFONAMIDE HYDRAZONE DERIVATIVE COMPOUNDS AND THEIR USAGE IN CONTROLLING PARASITES” (priority 2006, published 2007)

Experiments:
Rhipicephalus sanguineus [1] = assay: Dose response protocol for topical application on brown dog ticks (LD50); settings: 24 h mortality, probit analysis
Protocol: e) Dose response protocol for topical application on brown dog ticks (Rhipicephalus sanguineus): The test determines the level of insecticidal activity of sample compounds or formulations when applied topically on brown dog ticks. Sample compounds were stored prior to use in a freezer (−5±1° C.), unless otherwise specified.
• Mortality: A tick is defined as dead after it gives no apparent response when touched lightly or gently breathed upon, while observed for 30 seconds. • LD50 (Lethal Dose 50): The dose of a topically applied treatment at which 50% of the dog ticks are killed. • Reference compound: To assess an experimental compound for significant acaricidal activity a single dose level is chosen, which is based upon known results from previous experiments using a commercially available active i.e., a reference compound. The reference compound selected is one in common use, and one that has a similar mode of action against the Brown Dog Tick (i.e., the test species), • Recovery container: A recovery container consists of a 500 ml round plastic container measuring 115 mm diameter and 70 mm height, with a tight fitting lid that has 10 small (˜1 mm) holes inserted for air exchange. A 90 mm diameter piece of filter paper was placed on the bottom of the container and moistened with 1 mL of distilled water.
Adult, mixed sex, Brown Dog Ticks (Rhipicephalus sanguineus) were reared as follows: (i) cultured, (ii) transferred unfed, to a testing laboratory, and (iii) then maintained under controlled conditions (i.e., temp. 18°±2° C., humidity 75±5% RH). The ticks used were selected for vigor prior to testing, i.e., capable of actively walking and responsive to being touched or gently breathed upon.
During the testing, the temperature was maintained at 25±1° C. and the humidity was ambient. Seven dose levels (concentrations) of sample compound, in the form of serial dilutions in acetone, were derived from a pilot study and covered a range that produced very low to very high mortality. Groups of ten ticks were treated topically (on the abdomen) with 1 μL of a single dose level of the sample compound. Each test was replicated four times, i.e., employing a total of 40 ticks per dose level of each sample compound. As a control, ten ticks were treated with solvent only (acetone) for each test. Following the treatment, the ticks were held in recovery containers maintained under appropriate rearing conditions for 24 hours. Mortality resulting from the treatments was recorded at 24 hours. […] Press, London (1971).]

Rhipicephalus sanguineus [2] = assay: Rapid screening protocol for topical application on brown dog ticks (% mortality); settings: data from laboratory 2
In short: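 Mixed-sex unfed adult ticks each received 1 μL test sample in acetone on the abdomen at a single screening dose chosen above the reference LD90 (fipronil 10 μg/tick), with acetone-only controls; 4 replicates of 10 ticks. Held 24 h at 25±1 °C; ticks unresponsive to light touch over 1 min scored dead, pooled as % mortality.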

Ctenocephalides felis [3] = test system: Ctenocephalides felis
In short: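 Adult cat fleas (3–7 days post-emergence), 15 per flask in ≥4 replicates, exposed to a dried acetone residue at 1.26 μg/cm^2 on a Coatasil-treated glass flask base. Held at 25±1° C, 75±5% humidity; mortality (immobile or unable to right) scored at 8, 24 and/or 48 h.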

Ctenocephalides felis [4] = assay: Ctenocephalides felis adulticide assay: C. felis dose response (LC50)
Source text: c) Ctenocephalides felis Adulticide Assay: C. felis Dose Response
The purpose of this example was to determine the LC50 when cat fleas were contacted with a glass surface treated with sample compounds or formulations prepared as described above. […] The test species was the cat flea (Ctenocephalides felis). The strain used was obtained from external suppliers as pupae and held in the laboratory under testing conditions until the adults had emerged. Fifteen (15) fleas were used in a minimum of four replicates for each dose level (total of 60 fleas per dose level). The insects were selected to be in the adult life stage, aged between 3 and 7 days post emergence.
The compounds to be tested were dissolved in acetone just prior to testing. Samples of compounds were stored in a refrigerator (5±1° C.) unless otherwise specified. During the mortality testing, the temperature was maintained at 25±1° C. Humidity was maintained at 75±5%. The base (area=159 mm^2) of a 100 mL glass Erlenmeyer (conical) flask provided the treatment surface. Flasks were pretreated with Coatasil™ glass treatment to maximise bio-availability of test compounds by preventing them from binding to the glass surface.
The base of the 100 mL Erlenmeyer flask was treated with 0.5 mL of test sample in acetone and gently swirled. This volume was sufficient to cover the base of the flask. Flasks were left to dry for 24 hours before flea exposure. Adult cat fleas were lightly anaesthetised by cooling and then placed into a sorting chamber, which allowed fleas to revive and jump into the Erlenmeyer flasks. Fifteen (15) adult cat fleas were collected in each flask. The top of the flasks were then covered in Parafilm™ and small holes made to allow gas exchange. A 0.5 mL volume of acetone was applied to the base of an Erlenmeyer flask and the testing proceeded in the same manner described above. Cat fleas in the treatment containers were held under testing conditions for 24 hours. Mortality resulting from the treatments was recorded at 8 and 24 hours.

SMILES	R. sanguineus LD50 (Rhipicephalus sanguineus [1]) [μg/tick]	R. sanguineus Mortality (%) 24 h (Rhipicephalus sanguineus [2]) [%]	C. felis Mortality (%) 8 h (Ctenocephalides felis [3]) [%]	C. felis Mortality (%) 24 h (Ctenocephalides felis [3]) [%]	C. felis LC50 (Ctenocephalides felis [4]) [ppm]
CC(=NN(C)C(=O)c1ccc(Cl)cc1)c1cc(Cl)ccc1NS(=O)(=O)C(F)(F)F [Compound 59]	1.8	100	100	100	2.9
CCC(=NNC(=O)c1ccc(Cl)cc1)c1cc(Cl)ccc1NS(=O)(=O)C(F)(F)F [Compound 60]	7.1	75	60	100	4.1
CC(=NN(C)C(=O)c1ccc(Cl)cc1Cl)c1cc(Cl)ccc1NS(=O)(=O)C(F)(F)F [Compound 62]	1.6	100	100	100	2.2
CCN(N=C(C)c1cc(Cl)ccc1NS(=O)(=O)C(F)(F)F)c1cc(Cl)cc(Cl)c1 [Compound 70]	4.1	100	95	100	1.8
CCN(N=C(C)c1cc(Cl)ccc1NS(=O)(=O)C(F)(F)F)c1ccc(Cl)c(Cl)c1 [Compound 71]	4.2	98	94	100	2.5
CCCN(N=C(C)c1cc(Cl)ccc1NS(=O)(=O)C(F)(F)F)c1cccc(F)c1 [Compound 72]	3.1	100	100	100	1.5
CCCN(N=C(C)c1cc(Cl)ccc1NS(=O)(=O)C(F)(F)F)c1ccc(C)cc1 [Compound 73]	5.3	88	96	100	2.1
CC(=NN(C)c1cccc(F)c1)c1cc(Cl)ccc1NS(=O)(=O)C(F)(F)F [Compound 74]	2.0	100	100	100	0.76
CCN(N=C(C)c1cc(Cl)ccc1NS(=O)(=O)C(F)(F)F)c1cccc(F)c1 [Compound 76]	2.1	98	100	100	0.42
CCC(=NN(C)C(=O)c1ccc(Cl)cc1)c1cc(Cl)ccc1NS(=O)(=O)C(F)(F)F [Compound 81]	1.49	100	100	100	2.2
CCC(=NN(C)C(=O)c1ccc(Cl)cc1Cl)c1cc(Cl)ccc1NS(=O)(=O)C(F)(F)F [Compound 82]	2.0	100	98	100	2.4
CC(=NN(C)c1ccc(Cl)c(Cl)c1)c1cc(Cl)ccc1NS(=O)(=O)C(F)(F)F [Compound 96]	3.0	78	19	99	2.0
